Results published in patent publication US20150011394A1 (priority 2012, published 2015).
Like-named read-outs stand apart in the source and are kept apart here.

What was measured:
Burkholderia glumae [1] = settings: rice, 150 g ai/ha, 1 spray, 29 days after the 1st spray
Burkholderia glumae [2] = format: in vivo
[3] = rice at harvest, 150 g ai/ha, 2 sprays

SMILES | % efficacy (Abbott), Burkholderia glumae incidence on panicles (Burkholderia glumae [1]) [%] | Yield (% of untreated) (Burkholderia glumae [2]; [3]) [%] | Yield T/ha (Burkholderia glumae [2]; [3]) [T/ha] | % efficacy (Abbott), Burkholderia glumae incidence on panicles (Burkholderia glumae [2]; rice, 150 g ai/ha, 2 sprays, 44 days after the 2nd spray) [%] | final yield increase (Burkholderia glumae [2]; rice, harvest trial, Isotianil treated plots)
CCC1(C(=O)N[C@H](C)c2ccc(Cl)cc2)C(C)C1(Cl)Cl (some centres unmarked) [CARPROPAMID] | 36 | 108 | 9.06 | 43 | –
N#Cc1ccccc1NC(=O)c1snc(Cl)c1Cl [Isotianil, isotianil] | – | – | – | – | about 20%
